Assay results published in BindingDB's records for doi:10.1016/j.bmcl.2005.09.045 (University of Leeds, 2006).

Target: T1, Dihydroorotate dehydrogenase (quinone), mitochondrial (Plasmodium falciparum (isolate 3D7), UniProt Q08210)
T1 sequence (Q08210 whole entry): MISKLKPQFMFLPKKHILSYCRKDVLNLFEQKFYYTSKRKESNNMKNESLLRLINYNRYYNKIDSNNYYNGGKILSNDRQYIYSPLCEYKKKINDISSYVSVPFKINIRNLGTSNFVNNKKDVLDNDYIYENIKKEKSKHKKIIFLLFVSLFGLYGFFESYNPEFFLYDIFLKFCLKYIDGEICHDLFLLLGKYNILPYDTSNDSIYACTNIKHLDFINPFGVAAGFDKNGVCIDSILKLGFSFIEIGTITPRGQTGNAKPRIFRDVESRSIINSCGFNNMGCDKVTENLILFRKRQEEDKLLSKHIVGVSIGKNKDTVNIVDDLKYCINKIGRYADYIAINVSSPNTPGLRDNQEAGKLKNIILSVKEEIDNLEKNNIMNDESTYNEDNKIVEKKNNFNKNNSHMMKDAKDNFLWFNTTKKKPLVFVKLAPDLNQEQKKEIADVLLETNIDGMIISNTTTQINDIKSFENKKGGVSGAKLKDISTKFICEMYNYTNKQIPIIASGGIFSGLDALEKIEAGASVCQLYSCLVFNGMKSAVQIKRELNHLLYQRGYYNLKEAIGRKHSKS
Experiment: DHODH Inhibition Assay
Settings: pH 8; 25 °C
Protocol: The assays were carried out by using a colorimetric DCIP method, which uses the colorimetric reagent 2, 6-dichlorophenolindophenol as the final electron acceptor. DCIP reduction is stoichiometrically equivalent to oxidation of dihydroorotate. Changes in absorbance were quantified in triplicate on a plate reader and data were analyzed to measure the reduction of DCIP as a decrease in absorbance at 600 nm. The data were then processed with Graphpad Prism to determine the IC50 and the apparent enzyme inhibition constant (Ki) for each inhibitor. Ki values were calculated using the Cheng-Prusoff equation with the Km for CoQD of 13 uM and 15 uM for PfDHODH and HsDHODH respectively.

SMILES | IC50 [µM]
O=C(Nc1ccccc1C(=O)O)c1ccc2ccccc2c1 [2-(naphthalene-2-amido)benzoic acid] | > 200
CN(C(=O)c1ccc2ccccc2c1)c1ccccc1C(=O)O [2-[methyl(naphthalene-2-)amido]benzoic acid] | > 200
